Calls of active or inactive are those of the source. The calls are words filed in the database; no cut-off is given here.
Experiments:
Type in all cases: functional
[1] = system: Schoenoplectiella juncoides; test: Pre-emergence herbicidal activity against Schoenoplectiella juncoides at 50 g a.i./a measured after 3 weeks
[2] = system: Eleusine indica; test: Inhibition of Eleusine indica germination at 300 ppm after 5 days relative to control; conditions: for inhibition at 300 ppm: 120 h
[3] = system: Schoenoplectiella juncoides; test: Herbicidal activity against Schoenoplectiella juncoides at 50 g a.i./a applied at one-leaf stage by foliar application measured after 3 weeks
[4] = system: Lactuca sativa; test: Inhibition of Lactuca sativa longifolia Lams (lettuce) seed germination at 50 ppm after 5 days relative to control; conditions: for inhibition at 50 ppm: 120 h
[5] = system: Eleusine indica; test: Inhibition of Eleusine indica seed germination at 50 ppm after 5 days relative to control; conditions: for inhibition at 50 ppm: 120 h
[6] = system: Oryza sativa; test: Herbicidal activity against Oryza sativa (rice) at 50 g a.i./a applied at one-leaf stage by foliar application measured after 3 weeks
[7] = system: Lactuca sativa; test: Inhibition of Lactuca sativa longifolia Lams (lettuce) seed germination at 300 ppm after 5 days relative to control; conditions: for inhibition at 300 ppm: 120 h
[8] = system: Cyperus serotinus; test: Herbicidal activity against Cyperus serotinus at 50 g a.i./a measured after 3 weeks
[9] = system: Eleusine indica; test: Inhibition of Eleusine indica seed germination at 100 ppm after 5 days relative to control; conditions: for inhibition at 100 ppm: 120 h
[10] = system: Sagittaria pygmaea; test: Herbicidal activity against Sagittaria pygmaea at 50 g a.i./a measured after 3 weeks
[11] = system: Echinochloa crus-galli; test: Herbicidal activity against Echinochloa crus-galli (barnyard grass) at 50 g a.i./a measured after 2 weeks
[12] = system: Lactuca sativa; test: Inhibition of Lactuca sativa longifolia Lams (lettuce) seed germination at 100 ppm after 5 days relative to control; conditions: for inhibition at 100 ppm: 120 h

| SMILES | inhibition at 300 ppm [2] [%] | inhibition at 300 ppm [7] [%] | inhibition at 100 ppm [9] [%] | inhibition at 100 ppm [12] [%] | inhibition [2] | inhibition [4] | inhibition [5] | inhibition [7] | inhibition [9] | inhibition [12] | further results |
| --- | --- | --- | --- | --- | --- | --- | --- | --- | --- | --- | --- |
| Cc1ccc(C)c(NC(=O)c2nc(C)c(C)nc2C(=O)NCC(C)C)c1 | 50 | 62 | 47 | 59 |  |  |  |  |  |  | Activity [1]: 10%; Activity [3]: 80%; inhibition at 50 ppm [4]: 55%; inhibition at 50 ppm [5]: 53%; Activity [6]: 99%; Activity [8]: 100%; Activity [10]: 95%; Activity [11]: 90% |
| Cc1ccc(C)c(NC(=O)c2nc(C)c(C)nc2C(=O)OCCC(C)C)c1 |  |  |  |  | inactive | inactive | inactive | inactive | inactive | inactive |  |
| CCCCCN(CCCCC)C(=O)c1nc(C)c(C)nc1C(=O)Nc1cc(C)ccc1C |  |  |  |  | inactive | inactive | inactive | inactive | inactive | inactive |  |
| CCC(C)NC(=O)c1nc(C)c(C)nc1C(=O)Nc1cc(C)ccc1C (stereo not given) | 44 | 72 | 41 | 65 |  |  |  |  |  |  | Activity [1]: 100%; Activity [3]: 50%; inhibition at 50 ppm [4]: 61%; inhibition at 50 ppm [5]: 38%; Activity [6]: 99%; Activity [8]: 95%; Activity [10]: 75%; Activity [11]: 70% |
| CCOC(=O)c1nc(C)c(C)nc1C(=O)Nc1cc(Cl)ccc1Cl |  |  |  |  |  |  |  |  | inactive |  |  |
| Cc1nc(C(=O)Nc2cc(Cl)ccc2Cl)c(C(=O)OC(C)C)nc1C |  |  |  |  |  |  |  |  | inactive |  |  |
| Cc1ccc(C)c(NC(=O)c2nc(C)c(C)nc2C(=O)NCCC(C)C)c1 | 40 | 47 | 34 | 41 |  |  |  |  |  |  | Activity [1]: 100%; Activity [3]: 20%; inhibition at 50 ppm [4]: 43%; inhibition at 50 ppm [5]: 32%; Activity [6]: 99%; Activity [8]: 80%; Activity [10]: 85%; Activity [11]: 70% |
| COC(=O)c1nc(C)c(C)nc1C(=O)Nc1cc(Cl)ccc1Cl |  |  |  |  |  |  |  |  | inactive |  |  |
| CCCC(C)OC(=O)c1nc(C)c(C)nc1C(=O)Nc1cc(C)ccc1C (stereo not given) | 33 | 50 | 32 | 44 |  | inactive | inactive |  |  |  |  |
| CCC(C)OC(=O)c1nc(C)c(C)nc1C(=O)Nc1cc(C)ccc1C (stereo not given) | 15 | 36 | 13 | 32 |  |  |  |  |  |  |  |
| CCCCNC(=O)c1nc(C)c(C)nc1C(=O)Nc1cc(C)ccc1C | 40 | 34 | 39 | 35 |  |  |  |  |  |  | Activity [1]: 100%; Activity [3]: 60%; Activity [6]: 100%; Activity [8]: 100%; Activity [10]: 90%; Activity [11]: 80% |
| Cc1ccc(C)c(NC(=O)c2nc(C)c(C)nc2C(N)=O)c1 |  |  | 20 |  |  |  |  |  |  |  |  |
| Cc1ccc(C)c(NC(=O)c2nc(C)c(C)nc2C(=O)NC(C)C)c1 | 36 | 68 | 30 | 66 |  |  |  |  |  |  | Activity [1]: 50%; Activity [3]: 30%; inhibition at 50 ppm [4]: 58%; inhibition at 50 ppm [5]: 30%; Activity [6]: 70%; Activity [8]: 0%; Activity [10]: 0%; Activity [11]: 0% |
| CCCCOC(=O)c1nc(C)c(C)nc1C(=O)Nc1cc(C)ccc1C |  |  |  |  | inactive | inactive | inactive | inactive | inactive | inactive |  |
| CCCCN(CCCC)C(=O)c1nc(C)c(C)nc1C(=O)Nc1cc(C)ccc1C |  |  |  |  | inactive | inactive | inactive | inactive | inactive | inactive |  |
| CCCOC(=O)c1nc(C)c(C)nc1C(=O)Nc1cc(Cl)ccc1Cl |  |  |  |  |  |  |  |  | inactive |  |  |
| Cc1ccc(C)c(NC(=O)c2nc(C)c(C)nc2C(=O)N(C)C)c1 |  |  |  |  | inactive | inactive | inactive | inactive | inactive | inactive |  |
| CCCNC(=O)c1nc(C)c(C)nc1C(=O)Nc1cc(C)ccc1C | 47 | 54 | 47 | 56 |  |  |  |  |  |  | Activity [1]: 80%; Activity [3]: 40%; inhibition at 50 ppm [4]: 43%; inhibition at 50 ppm [5]: 42%; Activity [6]: 95%; Activity [8]: 90%; Activity [10]: 0%; Activity [11]: 50% |
| CCN(CC)C(=O)c1nc(C)c(C)nc1C(=O)Nc1cc(C)ccc1C |  |  |  |  | inactive | inactive | inactive | inactive | inactive | inactive |  |
| CCCCCOC(=O)c1nc(C)c(C)nc1C(=O)Nc1cc(C)ccc1C |  |  |  |  | inactive | inactive | inactive | inactive | inactive | inactive |  |
| Cc1ccc(C)c(NC(=O)c2nc(C)c(C)nc2C(=O)OCC(C)C)c1 |  |  |  |  | inactive | inactive | inactive | inactive | inactive | inactive |  |
| CCCN(CCC)C(=O)c1nc(C)c(C)nc1C(=O)Nc1cc(C)ccc1C |  |  |  |  | inactive | inactive | inactive | inactive | inactive | inactive |  |
| Cc1ccc(C)c(NC(=O)c2nc(C)c(C)nc2C(=O)OC(C)C)c1 |  |  | 20 |  |  |  |  |  |  |  |  |

— ChEMBL document CHEMBL3046670, “Synthesis of Esters, Amides, N-Alkylamides and N, N-Dialkylamides of 2, 3-Dimethyl-5-(2, 5-disubstituted phenylaminocarbonyl)-6-pyrazinecarboxylic Acid and Their Phytotoxicity” (1992)
